Laboratory results published in US20080153908A1, “Method of Treating Mucin Deficiency with an Active Pharmaceutical and Related Composition” (priority 2006, published 2008).

Legend:
[1] = tested on: rat colon cells; conditions: isolated vascularly perfused rat colon; cited from earlier work
[2] = tested on: colonic mucin production; conditions: about 0.1 millimolar sodium butyrate; tissue harvested from colonic cancer patients; cited from earlier work
[3] = tested on: mucin content of tear film; experiment: Stimulation of mucin production: tear film mucin content in patients with mucin deficiency; type: in vivo, human; conditions: 0.5 wt. % solution in artificial tear solution, four-times a day for four days; control receives artificial tear solution
Description: A 0.5 wt. % solution of sodium butyrate in artificial tear solution is administered to one of a […] that suffer from mucin deficiency. The patients receiving butyrate drops belong to the study group. The patients in the control group receive artificial tear solution. Both groups receive treatment four-times a day for four days. Following treatment, tear film samples are collected and tested to quantify mucin content.

Structure (SMILES)	stimulation of mucin secretion of rat colon cells [1]	increase in colonic mucin production compared to a control group [2]	concentration of mucin in tear film samples versus control group [3]
CC(=O)O [acetate]	can stimulate the mucin secretion	–	–
CCC(=O)O [propionate]	can stimulate the mucin secretion	–	–
CCCC(=O)[O-].[Na+] [sodium butyrate]	–	almost five fold increase	higher concentration of mucin
